# Laboratory results taken from the NIST ThermoML archive (doi:10.1021/acs.jced.9b00237).
# Numbers after ± are expanded uncertainties.
# Experiment: xn = mol fraction of the nth substance listed
# Details: 100 kPa, Liquid; for viscosity: Concentric cylinders viscometry; for mass density: Vibrating tube method
structure (smiles),measurement,setting,value
C[N+](C)(C)CCO.[Cl-] [choline chloride] + Oc1ccccc1,viscosity,"293.15 K, x1 = 0.2",39 ± 1.7 mPa·s
same,viscosity,"293.15 K, x1 = 0.25",58.16 ± 1.9 mPa·s
same,mass density,"293.15 K, x1 = 0.2",1093 ± 2 kg/m3
same,mass density,"293.15 K, x1 = 0.25",1096 ± 2 kg/m3
same,viscosity,"303.15 K, x1 = 0.2",24.67 ± 0.88 mPa·s
same,viscosity,"303.15 K, x1 = 0.25",35.76 ± 1.4 mPa·s
same,mass density,"303.15 K, x1 = 0.2",1087 ± 2 kg/m3
same,mass density,"303.15 K, x1 = 0.25",1089 ± 2 kg/m3
same,viscosity,"313.15 K, x1 = 0.2",16.69 ± 0.58 mPa·s
same,viscosity,"313.15 K, x1 = 0.25",23.53 ± 0.84 mPa·s
same,mass density,"313.15 K, x1 = 0.2",1080 ± 2 kg/m3
same,mass density,"313.15 K, x1 = 0.25",1083 ± 2 kg/m3
same,viscosity,"323.15 K, x1 = 0.2",11.83 ± 0.4 mPa·s
same,viscosity,"323.15 K, x1 = 0.25",16.42 ± 0.56 mPa·s
same,mass density,"323.15 K, x1 = 0.2",1073 ± 2 kg/m3
same,mass density,"323.15 K, x1 = 0.25",1077 ± 2 kg/m3
same,viscosity,"333.15 K, x1 = 0.2",8.825 ± 0.32 mPa·s
same,viscosity,"333.15 K, x1 = 0.25",12.02 ± 0.36 mPa·s
same,mass density,"333.15 K, x1 = 0.2",1067 ± 2 kg/m3
same,mass density,"333.15 K, x1 = 0.25",1071 ± 2 kg/m3
